Source: patent publication US20080081781A1, “Methods and compositions for the treatment of metabolic syndrome” (priority 2004, published 2008)
Where two headings read alike, the source gives them in different places.

Tests used:
[1] = tested on: ERK; assay: ERK activation in HepG2 or Bel-7402 cells (western blotting, phosphorylated ERK); type: cell-based, human; details: both hepatoma cell lines HepG2 and Bel-7402; 0.25-24 hours
Protocol: HepG2 or Bel-7402 cells were treated with berberine for 0.25, 0.5, 0.75, 1, 2, 8, and 24 hours respectively and tested for levels of activated ERK by western blotting using antibodies that only recognize the activated (phosphorylated) ERK. […] The activation of berberine is also dose dependent (FIG. 14C).

[2] = in vivo; design: species or system canine (beagle); details: beagle, dog
Protocol: In parallel animal model studies, four canine (beagle) subjects were given 45 mg/kg of berberine orally. Serum concentrations of the drug were determined by HPLC at 2 and 3 hours after administration. […] After the berberine had cleared the system, the same dog was then administered 700 mg/kg of berberine and blood samples were taken 2, 3, 5, 7, 9 and 24 hours after administration resulting in concentrations of 21.51, 44.89, 49.54, 36.35, 27.83, and 16.01 ηg/ml respectively.

[3] = tested on: hyperglycemic rats; assay: Hyperglycemic HFHC diet/streptozotocin Wistar rats: blood glucose, serum insulin, ISI, serum lipids; type: in vivo, Wistar rat; details: for reduction of fasting blood glucose vs untreated rats on same HFHC diet: 14 days
Protocol: Nineteen Wistar rats (Male, 250g, the Institute of Experiment Animal Sciences, Chinese Academy of Medical Sciences, Beijing) were fed high fat and high cholesterol (HFHC) diet containing 25% lard, 20% sucrose and 5% yolk powder (Institute of Experiment Animal Sciences) for 4 weeks to induce insulin resistance status. Then, after fasting for 24 hours, 20 mg/kg of streptozotocin (Sigma) dissolved in 0.01 M citric acid buffer (pH 4.3) was injected via the tail vein. A week later, rats with blood glucose concentrations over 11.1 mmol/L were considered hyperglycemic and divided into two groups of 7 and one group of 5 as the control.
The rats in the two groups of 7 were treated with berberine orally twice a day for 14 days, at 8:00 am and 5:00 pm, with a total dose of berberine at 75 mg/kg/day or 150 mg/kg/day, respectively. Blood samples were taken by tail snip after 4 hours fasting on indicating days of treatment, and blood glucose was measured. On the last day of the experiment, all of the rats fasted overnight and were then sacrificed.
The livers were dissected and stored in liquid nitrogen for RNA extraction, real-time RT-PCR and PKC activity assay. Total blood samples were also collected to assay fasting blood glucose and serum insulin levels. The insulin levels were analyzed using radio-immunoassay (Linco Research, St Charles, Mo.). The insulin sensitivity indexes (ISI) were calculated according to the formula: 10^4/(fasting serum insulin X fasting blood glucose) (Hanson, Am. J. Epidemiol. 15 1(2), 190-198 (2000)). The insulin level and ISI of normal rats were also determined for comparison. […] It also elevated the fasting blood glucose from 7 to 12.8 mmol/L (P<0.001).

[4] = tested on: InsR; assay: InsR expression in Bel-7402 cells; type: cell-based, human; details: Bel-7402 compared with HepG2
Source text: The effect of berberine on InsR was further confirmed in another hepatoma cell line, Bel-7402 […] (FIG. 18). […] The expression of PPAR-r mRNA in liver cells was not changed by berberine (data not shown).

[5] = tested on: patients with type 2 diabetes; type: in vivo, human
Source text: Ninety-seven hyperglycemic patients (54 males and 43 females) with fasting blood glucose>7 mmol/L and post-prandial blood glucose>11.1 mmol/L were enrolled in a study at the Nanjing First Hospital in Nanjing, China. The patients were asked to end any current treatments for hyperglycemia at least 2 weeks prior to commencement of the study.
Fifty of the patients (male/female, 27/23; age 57±8y) were randomly assigned to be given 0.5 gram twice a day (1g/day total) of berberine (Nanjing Second Pharmaceutics, Inc., Nanjing, China), orally for 2 months. Out of these 50 patients, 25 had hyperlipidemia, 9 had hypertension and 2 had cardiovascular disease. Twenty-six patients (male/female, 15/11; age 56±11 y) were given 1.5 grams of metformin (Double-Crane Pharmaceutical, Inc., Beijing, China) per day, orally for two months. Of these twenty-six patients, 11 had hyperlipidemia, and four had hypertension. The remaining twenty-one patients (male/female, 11/10, age 49±10 y) were given 4 mg per day of rosiglitazone (Glaxowelcome, UK), orally for two months. Of these 21 patients, ten had hyperlipidemia and four had hypertension. Metformin and rosiglitazone served as reference controls as they are standard treatments for type 2 diabetes.
Blood samples were taken prior to the commencement of therapy and after completion of the therapy.

[6] = 150 mg/kg/day, 14 day treatment
[7] = patients with type 2 diabetes, After treatment (2 months), oral: berberine 1 g/day, metformin 1.5 g/day, rosiglitazone 4 mg/day, Mean ± SE
[8] = patients with type 2 diabetes, Before treatment (baseline), Mean ± SE
[9] = type 2 diabetes patients, 1 g/day orally, 2 months

Q: Which results are given for `COc1ccc2cc3[n+](cc2c1OC)CCc1cc2c(cc1-3)OCO2` [berberine]?
A: ERK activation (phosphorylated ERK) [1]: rapidly activated ERK; concentration at 2 hours ([2]; 280 mg/kg): 31400 ng/mL; serum concentration ([2]; 280 mg/kg, 3 hours): 22.6 ηg; concentration at 2 hours ([2]; 700 mg/kg): 21.5 ng/mL; concentration at 3 hours ([2]; 700 mg/kg): 44.9 ng/mL; concentration at 5 hours ([2]; 700 mg/kg): 49.5 ng/mL; concentration at 7 hours ([2]; 700 mg/kg): 36.4 ng/mL; concentration at 9 hours ([2]; 700 mg/kg): 27.8 ng/mL; concentration at 24 hours ([2]; 700 mg/kg): 16 ng/mL; reduction of fasting blood glucose vs untreated rats on same HFHC diet ([3]; 75 mg/kg/day orally): 22%; reduction of fasting blood glucose vs untreated rats on same HFHC diet ([3]; 150 mg/kg/day orally): 33%; reduction of LDL-c vs control animals on same HFHC diet [3, 6]: 33%; reduction of cholesterol vs control animals on same HFHC diet [3, 6]: 25%; reduction of triglyceride vs control animals on same HFHC diet [3, 6]: 24%; fasting serum insulin levels ([3]; insulin resistant HFHC rats): significantly reduced the serum insulin levels; InsR expression [4]: identical upregulating effect; serum insulin levels ([5]; after treatment, normal range 2.5-13 mlU/L): decreased into the normal range; ALT after treatment ([5]; human, in vivo): 23±16; BUN after treatment ([5]; human, in vivo): 5.7±1.2; Cr after treatment ([5]; human, in vivo): 71±14; r-GT after treatment ([5]; human, in vivo): 31±23; HbA1c [5, 7]: 6.8 ± 0.2 %; Triglyceride [5, 7]: 1.4 ± 0.1 mmol/L; FBG (fasting blood glucose) [5, 8]: 10.4 ± 0.4 mmol/L; HbA1c [5, 8]: 8.0 ± 0.3%; Triglyceride [5, 8]: 1.7 ± 0.1 mmol/L; reduction of serum cholesterol ([5]; type 2 diabetes patients of berberine group (50% also had hyperlipidemia)): 24%; lowering of fasting blood glucose [5, 9]: 26%; lowering of hemoglobin A1c (HbA1c) [5, 9]: 18%; lowering of triglycerides [5, 9]: 18%
